Reference: patent publication US20060094676A1, “Compositions and methods for treating cancer using compositions comprising an inhibitor of endothelin receptor activity” (priority 2004, published 2006)

What was measured:
[1] = tested on: Me 191-I/GG (Primary) melanoma cells; experiment: MTS assay of cell viability after BQ788; assay type: cell-based; conditions: incubation with BQ788 for seven days; Primary line
Protocol: Cells were cultured on a matrigel matrix that was histologically examined after two weeks (A-F). While the primary melanoma cells remained on top of the gel only (A and B), a fraction of the Cut-met cells invaded the gel (C and D) and the LN-met cells invaded the matrix extensively (E and F). Cell lysates of the three lines were subjected to western blot analysis using an anti-ETRB Ab (G) and an anti-tubulin Ab (H). Untreated, control (vehicle treated), and BQ788 treated cells were subjected to MTS assay to quantify any reduction in cell number. The mean values were calculated and plotted (I) as the percentage of the vehicle treated value+/− SEM.
Human melanoma cell lines Me191-1/GG (Primary), Me 190/DA (Cut-met), Me 275/EP (LN-met) were obtained from the Ludwig Institute (Epalinges, Switzerland) and SK-MEL-28 was obtained from the American Tissue Culture Collection (ATCC). […] After removal of the inserts, MTS solution was added to the well to quantify the cells that migrated through the insert and were attached to the bottom of the well by measuring the OD at 492 nm (Promega). […]
To address the relationship between the level of progression of human melanoma and responsiveness to BQ788 treatment, 3 cell lines that had been grown in culture for a restricted number of passages were used. […] This effect was quantified using the MTS assay.

[2] = tested on: tumors derived from a human melanoma cell line grown in nude mice; experiment: Anti-CD31 immunohistochemistry of tumor sections (angiogenesis); assay type: in vivo; conditions: tumors injected with BQ788 vs vehicle
Protocol: Equal amounts of RNA from cells that were treated with BQ788 for 3 days were subjected to real-time RT-PCR analysis for the detection VEGF (A), HIF-1α (B) and Gravin (C) transcripts. Differences in expression levels are shown as x fold change and are statistically significant (p<0.05) unless a column in marked as non significant (N.S.). Sections of two representative tumors derived from a human melanoma cell line grown in nude mice and injected either with vehicle (D) or BQ788 (E) were stained with anti CD-31 to highlight blood vessels (brown staining, Lahav et al, 1999).
The relationship between the expression patterns of VEGF and GRAVIN is consistent with that observed in astrocytes, where GRAVIN down-regulates VEGF expression (Lee, et al., SSeCKS regulates angiogenesis and tight junction formation in blood-brain barrier, Nat. Med., 9:900-906 (2003)). In the present study we observed, at least for the most sensitive cell lines, LN-met and SK-MEL-28, that down-regulation of GRAVIN correlates with induction of VEGF. We therefore analyzed tissue sections of tumors derived from a human melanoma cell line grown in nude mice and injected with BQ788 for signs of changes in angiogenesis (Lahav, et al., An endothelin receptor B antagonist inhibits growth and induces cell death in human melanoma cells in vitro and in vivo, Proc. Natl. Acad. Sci. U.S.A., 96:11496-11500 (1999)).

7 melanoma lines = experiment: MTS assay, number of viable cells; assay type: cell-based; conditions: 100 μM BQ788; all 7 melanoma lines tested

With CCCC[C@@H](NC(=O)[C@@H](Cc1cn(C(=O)OC)c2ccccc12)NC(=O)[C@H](CC(C)(C)C)NC(=O)N1[C@H](C)CCC[C@@H]1C)C(=O)O [BQ788, N-cis-2,6-dimethylpiperidinocarbonyl-L-γ-methylleucyl-D-1-methoxycarbonyltrptophanyl-D-norleucine] as the compound, how does the “reduction in cell number” value [1] read?
Its value is 12%.

What about the “angiogenesis in tumors (anti-CD31 staining)” value [2] of the same compound?
The value was “clear increase in angiogenesis”.

And the “number of viable cells” value (7 melanoma lines)?
The value was “very significant loss”.
